# What was measured:
# [1] = target: T1, hSTING (stimulator of interferon genes) (Homo sapiens, UniProt Q86WV6); assay: IFN-β luciferase reporter in STING-transfected, digitonin-permeabilized HEK293T cells (vector control inactive); type: cell-based
# T1 construct: gene STING1; hSTING cDNA with C-terminal Flag tag expressed in HEK293T cells
# [2] = target: T2, hSTING (stimulator of interferon genes) (Homo sapiens, UniProt Q86WV6, G230A/H232R); assay: isothermal titration calorimetry; DSF shift (+[…]°C); type: binding
# T2 construct: gene STING1; C-terminal domain, residues 149-341, C-terminal 6×His tag (WT = R232)
# [3] = target: T3, hSTING (stimulator of interferon genes) (Homo sapiens, UniProt Q86WV6, H232R); assay: isothermal titration calorimetry; DSF shift (+[…]°C); type: binding
# T3 construct: gene STING1; C-terminal domain, residues 149-341, C-terminal 6×His tag (WT = R232)
# T3 sequence (Q86WV6 149-341 H232R): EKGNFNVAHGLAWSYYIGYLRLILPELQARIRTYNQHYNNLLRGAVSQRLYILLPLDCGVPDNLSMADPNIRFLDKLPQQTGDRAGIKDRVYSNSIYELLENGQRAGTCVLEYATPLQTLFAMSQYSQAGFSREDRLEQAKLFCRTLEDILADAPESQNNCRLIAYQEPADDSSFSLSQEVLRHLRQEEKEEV
# T1 sequence (Q86WV6 whole entry): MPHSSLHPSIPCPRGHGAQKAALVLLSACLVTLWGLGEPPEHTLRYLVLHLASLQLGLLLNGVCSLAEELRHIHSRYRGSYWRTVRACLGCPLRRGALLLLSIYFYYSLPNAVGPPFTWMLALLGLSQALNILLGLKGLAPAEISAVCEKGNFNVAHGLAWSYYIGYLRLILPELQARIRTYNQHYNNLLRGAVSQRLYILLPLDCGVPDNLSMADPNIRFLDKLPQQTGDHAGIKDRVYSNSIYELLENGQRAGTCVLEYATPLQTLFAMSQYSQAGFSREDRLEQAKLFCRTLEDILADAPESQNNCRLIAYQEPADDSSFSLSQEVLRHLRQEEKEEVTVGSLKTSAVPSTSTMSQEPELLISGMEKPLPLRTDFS
# T2 sequence (Q86WV6 149-341 G230A/H232R): as the sequence (Q86WV6 149-341 H232R) above, with G82A counted along it
Compound,"IFN-β luciferase reporter in STING-transfected, digitonin-permeabilized HEK293T [1]",Kd [2],Kd [3]
Nc1ncnc2c1ncn2[C@@H]1O[C@@H]2COP(=O)(O)O[C@H]3[C@@H](O)[C@H](n4cnc5c(N)ncnc54)O[C@@H]3COP(=O)(O)O[C@H]2[C@H]1O [c-di-AMP],16.1 fold (ratio to unstimulated),–,–
Nc1nc2c(ncn2[C@@H]2O[C@@H]3CO[P@](=O)(O)O[C@H]4[C@@H](O)[C@H](n5cnc6c(=O)[nH]c(N)nc65)O[C@@H]4CO[P@](=O)(O)O[C@H]3[C@H]2O)c(=O)[nH]1 [c-di-GMP],–,1900 nM,3.3 µM

# From publication PMC3804601, “Single Nucleotide Polymorphisms of Human STING Can Affect Innate Immune Response to Cyclic Dinucleotides” (PLoS ONE, 2013)
